The record followed here is article PMC4291083, “Ex Vivo Characterization of a Novel Iodine-123-Labelled Aminomethylchroman as a Potential Agonist Ligand for SPECT Imaging of Dopamine D2/3 Receptors” (International Journal of Molecular Imaging, 2014).

This data set concerns D2/3 receptors. The data set can be described thus: Blocking studies using ex vivo storage phosphor imaging (haloperidol). To be noted: 2 h p.i., rats. In kind it is in vivo. As for the experimental part: To determine whether [^123I]-1 binds selectively to D2/3 receptors in vivo, in the following experiments 5 rats received an i.v. injection of the dopamine receptor blocker haloperidol (1 mg/kg) 5 min prior to the injection with [^123I]-1 (approximately 37 MBq). A control group (n = 5) was injected with 0.4 mL buffer 5 min prior to the injection with the radiopharmaceutical. Two hours after the injection of [^123I]-1 (this time point was based on the results of the classic biodistribution study; see Results) the rats were sacrificed by bleeding through heart puncture under O2/CO2 anaesthesia. The brains were quickly removed and immediately frozen on dry ice. Then the frozen brain was sliced horizontally in 50 μm thick slices. Storage phosphor imaging was done as previously described. In contrast to previous studies, we used a Typhoon FLA 7000 Phosphor imager (GE Healthcare Life Sciences, Uppsala, Sweden) and Hypercassette Amersham Biosciences imaging plates which were scanned at 25 μm pixel size. In this blocking experiment, storage phosphor imaging was used because this offers the opportunity to look into binding in ventral as well as dorsal parts of the striatum. In ventral parts, the expression of dopamine D3 receptors is higher than in more dorsal parts.

Regarding `Oc1ccc2c(c1)O[C@@H](CNCc1ccc([123I])cc1)CC2` [[^123I]-1], the “specific binding in other brain areas including the globus pallidus” value is listed as “no specific binding” and the “uptake in white matter” value is given as “high uptake in white matter”. The specific striatal binding entry (haloperidol 1 mg/kg i.v. 5 min prior vs control) is “no specific striatal binding was observed”.
